How the values were obtained:
[1] = tested on: Escherichia coli ATCC® 8739™; test: Enumeration of colonies using the method of the invention; format: cell-based; details: E. coli; TSA agar; 35° C.; microcolony count
[2] = tested on: Candida albicans ATCC® 10231™; test: as above; format: cell-based; details: C. albicans; SDA agar; 35° C.; microcolony count
[3] = tested on: Aspergillus brasiliensis ATCC® 16404™; test: as above; format: cell-based; details: A. brasiliensis; SDA agar; 35° C.; microcolony count
[4] = tested on: K. pneumoniae ATCC® 13883™; test: Enumeration of bacteria implicated in uncomplicated and complicated UTI; format: cell-based, Klebsiella pneumoniae; details: black MCE membrane; for Time detection (minimal timing necessary to enumerate microcolonies): 37° C.
E. coli ATCC®8739™ = test: as above; format: cell-based, Escherichia coli; details: black MCE membrane; for Time detection (minimal timing necessary to enumerate microcolonies): 37° C.
[5] = tested on: P. mirabilis ATCC® 29906™; test: as above; format: cell-based, Proteus mirabilis; details: black MCE membrane
S. aureus ATCC® 6538™ = test: as above; format: cell-based, Staphylococcus aureus; details: black MCE membrane
E. faecalis ATCC® 19433™ = test: as above; format: cell-based, Enterococcus faecalis; details: black MCE membrane

| SMILES | Counting Scan at 17 h on MCE membrane with fluorochrome [1] | Counting Scan at 17 h on PVDF membrane with fluorochrome [1] | Counting Scan at 17 h on MCE membrane with fluorochrome [2] | Counting Scan at 17 h on PVDF membrane with fluorochrome [2] | Counting Scan at 17 h on MCE membrane with fluorochrome [3] | Counting Scan at 17 h on PVDF membrane with fluorochrome [3] | also measured |
| --- | --- | --- | --- | --- | --- | --- | --- |
| CN(C)CCNc1ccc(O)c2c1C(=O)c1c(O)ccc(NCCN(C)C)c1C2=O [DRAQ5, 1,5-bis (2-(di-methylamino)ethylamino)-4,8-dihydroxyanthracene-9,10-dione] | 185 | 162 |  |  |  |  |  |
| Cc1c(CC(=O)ON2C(=O)CCC2=O)c(=O)oc2cc(N)c(S(=O)(=O)O)cc12 [AF350-NHS Ester, 7-amino-3-[2-(2,5-dioxopyrrolidin-1-yl)oxy-2-oxoethyl]-4-methyl-2-oxochromene-6-sulfonic acid] | 109 | 107 | 9 | 20 | 25 | 19 |  |
| CC[N+]1=C(C=CC=CC=C2N(CCCCCC(=O)O)c3ccc(S(=O)(=O)O)cc3C2(C)C)C(C)(C)c2cc(S(=O)(=O)[O-])ccc21 [Sulfo-Cy5-Acid] | 114 | 120 | 13 | 13 | 25 | 34 |  |
| N=C(N)c1ccc(-c2cc3ccc(C(=N)N)cc3[nH]2)cc1 [DAPI, 4′,6-diamidino-2-phenylindole] |  |  |  |  |  |  | percentage of detected objects compared to standard procedure timing (24 h at 37° C.) ([4]; K. pneumonia, Columbia Blood): (100%); percentage of detected objects compared to standard procedure timing (24 h at 37° C.) ([4]; K. pneumonia, TSA): (100%); Time detection (minimal timing necessary to enumerate microcolonies) ([4]; K. pneumonia, Columbia Blood): 10 h; Time detection (minimal timing necessary to enumerate microcolonies) ([4]; K. pneumonia, TSA): 10 h; percentage of detected objects compared to standard procedure timing (24 h at 37° C.) ([4]; K. pneumoniae, MacConkey): (100%); Time detection (minimal timing necessary to enumerate microcolonies) ([4]; K. pneumoniae, MacConkey): 11 h; percentage of detected objects compared to standard procedure timing (24 h at 37° C.) (E. coli ATCC®8739™; Columbia Blood): (100%); percentage of detected objects compared to standard procedure timing (24 h at 37° C.) (E. coli ATCC®8739™; MacConkey): (98%); Time detection (minimal timing necessary to enumerate microcolonies) (E. coli ATCC®8739™; MacConkey): 10 h; percentage of detected objects compared to standard procedure timing (24 h at 37° C.) (E. coli ATCC®8739™; TSA): (100%); Time detection (minimal timing necessary to enumerate microcolonies) (E. coli ATCC®8739™; TSA): 6 h; percentage of detected objects compared to standard procedure timing (24 h at 37° C.) ([5]; Columbia Blood): (94%); percentage of detected objects compared to standard procedure timing (24 h at 37° C.) ([5]; TSA): (98%); Time detection (minimal timing necessary to enumerate microcolonies) ([5]; TSA, 37° C.): 10 h; percentage of detected objects compared to standard procedure timing (24 h at 37° C.) (S. aureus ATCC® 6538™; Columbia Blood): (100%); percentage of detected objects compared to standard procedure timing (24 h at 37° C.) (S. aureus ATCC® 6538™; TSA): (100%); Time detection (minimal timing necessary to enumerate microcolonies) (S. aureus ATCC® 6538™; TSA, 37° C.): 8 h; percentage of detected objects compared to standard procedure timing (24 h at 37° C.) (E. faecalis ATCC® 19433™; Columbia Blood): (100%); percentage of detected objects compared to standard procedure timing (24 h at 37° C.) (E. faecalis ATCC® 19433™; TSA): (100%); Time detection (minimal timing necessary to enumerate microcolonies) (E. faecalis ATCC® 19433™; TSA, 37° C.): 7 h |
| Cc1ccc2n1[B-](F)(F)[N+]1=C(CCCCCCCCCCCC(=O)O)C=CC1=C2 [BODIPY 500/510, 12-(2,2-difluoro-12-methyl-1-aza-3-azonia-2-boranuidatricyclo[7.3.0.03,7]dodeca-3,5,7,9,11-pentaen-4-yl)dodecanoic acid] |  | 112 |  |  |  |  |  |
| CCC(=O)c1ccc2cc(N(C)C)ccc2c1 [Prodan, 6-propionyl-2-dimethyaminonaphthalene] | 118 | 126 | 11 | 17 |  | 6 |  |

From patent publication US20250002967A1, “METHODS FOR DETECTING MICROORGANISMS BY ADDING A FLUORESCENT DYE DIRECTLY TO THE SOLID GROWTH MEDIUM” (DIAMIDEX, priority 2021, published 2025)
